Measured values as given in patent US9187474B2, “Raf inhibitor compounds” (Deciphera Pharmaceuticals, LLC, priority 2012, dated 2015).

Key:
[1] = Body weight in A375 mouse xenograft efficacy model; format: in vivo, mice; conditions: oral, twice a day at 12 mg/kg or thrice per day at 8 or 12 mg/kg, 21 days
Method: (§1) To further evaluate in vivo activity of compounds of Formula I, an A375 xenograft tumor model is utilized. Briefly, 10×10^6 cells in a 1:1 matrigel mix (0.2 mL total volume) are implanted by subcutaneous injection in the hind leg of nude female mice. A total of 8-10 mice in each group are used. Treatment is initiated with oral administration (gavage) of a test compound or vehicle (20% captisol, 25 mM phosphate, pH2.0) in 0.2 mL volume when tumor size reaches approximately 300-500 mg. Test compound is orally dosed twice or thrice a day for 21 days. Tumor growth and body weight are monitored over time to evaluate efficacy and signs of toxicity. Bidimensional measurements of tumors are performed twice a week and tumor volumes are calculated based on the following formula: (Tumor Volume)=[(L)×(W^2)×(π/6)] where L is mid-axis length and W is mid-axis width. Tumor volume data are transformed to a log scale to equalize variance across time and treatment groups. The log volume data are analyzed with a two-way repeated measures analysis of variance by time and treatment using the MIXED procedures in SAS software (version 8.2). The correlation model for the repeated measures is spatial power. Treated groups are compared to the control group at each time point. The MIXED procedure is also used separately for each treatment group to calculate adjusted means and standard errors at each time point. Both analyses account for the autocorrelation within each animal and the loss of data that occurs when animals with large tumors are removed from the study early. The adjusted means and standard errors are plotted for each treatment group versus time.

[2] = tested on: A-Raf, B-RafV600E and C-Raf; assay: ActivX KiNativ A375 whole cell lysate assay, summary over Raf isoforms; format: binding, human; conditions: A375 cells; summary of Table 1
Method: (§2) To further evaluate the enzymatic pan Raf activities of test compounds, they are evaluated in a KiNativ assay developed and carried out by ActivX Biosciences Inc. using whole cell lysates of A375 cells. A375 cells are human melanoma cells with a B-Raf V600E mutation.
Sample preparation: A375 cells from ATCC are lysed by sonication in commercially available lysis buffer, cleared by centrifugation, and the resulting supernatant gel filtered into a commercially available kinase reaction buffer containing 20 mM MnCl2. Final protein concentration of lysates are 10 mg/mL. 5 μL of each test compound is added from 100 μM, 10 μM, 1 μM, or 0.1 μM stock solutions in DMSO to 500 uL of lysate in duplicate for final concentrations of 1 μM, 0.1 μM, 0.01 μM, and 0.001 μM. 5 μL of DMSO is added to 500 μL of lysate in quadruplicate for controls. After 15 minute incubation, desthiobiotin-ATP acylphosphate probe is added to each sample to a final concentration of 5 μM and incubated with the samples for 10 minutes. […]
(§3) Data collection: Enriched peptide samples are analyzed by LC-MS/MS on a Thermo-LTQ Velos ion trap mass spectrometer using ActivX data collection methodology for A375 cells.
Data analysis: All quantitation is performed by extracting characteristic fragment ion signals from targeted MS/MS spectra and comparing signals in control and treated samples. […]

C-Raf = C-Raf (Homo sapiens (Human), UniProt P04049); assay: ActivX KiNativ A375 whole cell lysate assay; format: binding
C-Raf, sequence (P04049 whole entry): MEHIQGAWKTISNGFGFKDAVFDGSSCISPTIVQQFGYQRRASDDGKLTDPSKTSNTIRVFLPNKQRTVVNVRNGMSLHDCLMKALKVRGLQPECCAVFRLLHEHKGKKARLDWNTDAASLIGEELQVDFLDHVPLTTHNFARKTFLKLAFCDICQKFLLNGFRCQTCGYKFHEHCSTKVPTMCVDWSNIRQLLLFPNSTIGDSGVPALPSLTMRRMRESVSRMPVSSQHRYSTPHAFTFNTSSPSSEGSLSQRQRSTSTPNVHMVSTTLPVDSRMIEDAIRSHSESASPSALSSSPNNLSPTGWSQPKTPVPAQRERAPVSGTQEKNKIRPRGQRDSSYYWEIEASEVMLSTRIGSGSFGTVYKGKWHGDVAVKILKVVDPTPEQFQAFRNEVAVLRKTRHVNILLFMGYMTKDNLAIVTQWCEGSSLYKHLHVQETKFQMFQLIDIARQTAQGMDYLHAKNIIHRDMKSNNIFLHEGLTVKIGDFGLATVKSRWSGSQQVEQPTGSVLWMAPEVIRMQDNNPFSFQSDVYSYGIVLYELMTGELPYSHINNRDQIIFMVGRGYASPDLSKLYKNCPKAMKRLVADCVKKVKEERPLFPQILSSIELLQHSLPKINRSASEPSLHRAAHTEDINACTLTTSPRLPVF
Method: as §2
(§4) Sample preparation: A375 cells from ATCC are lysed by sonication in commercially available lysis buffer, cleared by centrifugation, and the resulting supernatant gel filtered into a commercially available kinase reaction buffer containing 20 mM MnCl2. Final protein concentration of lysates are 10 mg/mL. 5 μL of each test compound is added from 100 μM, 10 μM, 1 μM, or 0.1 μM stock solutions in DMSO to 500 uL of lysate in duplicate for final concentrations of 1 μM, 0.1 μM, 0.01 μM, and 0.001 μM. 5 μL of DMSO is added to 500 μL of lysate in quadruplicate for controls. After 15 minute incubation, desthiobiotin-ATP acylphosphate probe is added to each sample to a final concentration of 5 μM and incubated with the samples for 10 minutes. Following the probe reaction, samples are prepared for targeted mass spectrum analysis using ActivX standard protocol. Briefly, samples are prepared for trypsin digestion (denature, reduce alkylate), digested with trypsin, and desthio-biotinylated peptides are enriched on streptavidin resin.
as §3
(§5) Data analysis: All quantitation is performed by extracting characteristic fragment ion signals from targeted MS/MS spectra and comparing signals in control and treated samples. ActivX software is used with manual validation/visual inspection performed as needed based on data flagging/filtering measures. All inhibition data points are visually verified, as are all data points showing variability outside of normal limits.

B-Raf (V600E) = B-Raf (V600E) (Homo sapiens (Human), UniProt P15056, V600E); assay: ActivX KiNativ A375 whole cell lysate assay; format: binding
B-Raf (V600E), sequence (P15056 whole entry V600E): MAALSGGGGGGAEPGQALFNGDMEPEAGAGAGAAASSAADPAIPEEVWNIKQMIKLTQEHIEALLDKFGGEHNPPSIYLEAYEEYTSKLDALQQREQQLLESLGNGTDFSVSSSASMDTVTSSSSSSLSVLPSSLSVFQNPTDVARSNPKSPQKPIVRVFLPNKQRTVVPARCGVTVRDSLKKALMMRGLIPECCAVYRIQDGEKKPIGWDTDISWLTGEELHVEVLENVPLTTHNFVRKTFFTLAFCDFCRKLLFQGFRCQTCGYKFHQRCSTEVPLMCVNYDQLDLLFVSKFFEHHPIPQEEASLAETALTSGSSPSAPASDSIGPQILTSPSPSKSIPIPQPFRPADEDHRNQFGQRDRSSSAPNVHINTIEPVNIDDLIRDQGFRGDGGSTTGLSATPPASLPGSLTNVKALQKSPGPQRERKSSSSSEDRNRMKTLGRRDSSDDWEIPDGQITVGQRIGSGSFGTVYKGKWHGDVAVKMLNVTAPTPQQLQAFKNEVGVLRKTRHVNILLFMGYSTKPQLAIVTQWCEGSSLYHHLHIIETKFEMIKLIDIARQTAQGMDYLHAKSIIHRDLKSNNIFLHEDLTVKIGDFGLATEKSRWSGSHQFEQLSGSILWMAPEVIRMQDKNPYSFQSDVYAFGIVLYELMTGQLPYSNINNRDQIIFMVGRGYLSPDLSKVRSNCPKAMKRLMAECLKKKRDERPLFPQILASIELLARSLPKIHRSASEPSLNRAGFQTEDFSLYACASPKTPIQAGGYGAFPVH
Method: as §2, §4, §3, §5

A-Raf = A-Raf (Homo sapiens (Human), UniProt P10398); assay: ActivX KiNativ A375 whole cell lysate assay; format: binding
A-Raf, sequence (P10398 whole entry): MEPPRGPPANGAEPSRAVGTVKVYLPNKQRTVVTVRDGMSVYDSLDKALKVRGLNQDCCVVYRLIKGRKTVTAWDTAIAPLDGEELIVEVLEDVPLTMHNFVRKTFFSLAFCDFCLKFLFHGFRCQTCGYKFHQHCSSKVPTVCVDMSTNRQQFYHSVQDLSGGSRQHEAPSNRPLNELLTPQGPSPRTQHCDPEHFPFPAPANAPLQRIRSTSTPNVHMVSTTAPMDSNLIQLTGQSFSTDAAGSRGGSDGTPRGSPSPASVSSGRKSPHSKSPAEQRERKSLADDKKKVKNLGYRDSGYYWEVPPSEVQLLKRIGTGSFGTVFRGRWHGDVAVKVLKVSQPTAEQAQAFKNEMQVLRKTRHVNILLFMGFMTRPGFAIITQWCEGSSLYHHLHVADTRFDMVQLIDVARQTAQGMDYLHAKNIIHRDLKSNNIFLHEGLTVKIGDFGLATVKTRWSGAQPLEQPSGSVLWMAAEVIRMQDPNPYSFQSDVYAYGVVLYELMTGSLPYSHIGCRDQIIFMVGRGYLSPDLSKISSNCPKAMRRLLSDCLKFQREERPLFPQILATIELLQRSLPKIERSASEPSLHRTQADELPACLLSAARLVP
Method: as §2, §4, §3, §5

A375 xenograft tumor = assay: A375 mouse xenograft efficacy model; format: in vivo, mice; conditions: oral, twice a day at 12 mg/kg or thrice per day at 8 or 12 mg/kg, 21 days
Method: as §1

[3] = tested on: phospho-ERK in A375 (B-Raf V600E) xenograft; assay: A375 mouse xenograft pharmacodynamic assay (tumor pERK by ELISA); format: in vivo, mice; conditions: A-375, 20 mg/kg oral, 2 h post dose, vs vehicle, read-out: Measured pERK inhibition 2 h post dose
Method: To evaluate the in vivo pharmacodynamic (PD) effects of compounds of Formula I, an A375 (B-Raf V600E) xenograft model is employed. Briefly, 10×10^6 A375 tumor cells (ATCC) are prepared in a 1:1 matrigel mix (0.2 mL total volume) and implanted by subcutaneous injection in hind leg of nude female mice. A total of 4 mice each for each dosing group are employed. Treatment is initiated with oral administration (gavage) of test compound or vehicle (20% captisol, 25 mM phosphate, pH2.0) in 0.2 mL volume when average tumor size reaches approximately 300 mg. After a fixed time interval, the tumors are harvested and the phospho-ERK levels are measured by ELISA (Enzyme-linked immunosorbent assay). Treated groups are compared to the vehicle control group to calculate % inhibition.

[4] = tested on: phospho-ERK in HCT-116 cells; assay: HCT-116 cell pERK assay (AlphaScreen SureFire); format: cell-based; conditions: Homo sapiens; HCT-116 cells, B-Raf wild type, K-Ras mutation; 4 hours; read-out: IC50 reduction of phospho-ERK signal
How it was run: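 HCT-116 cells (wild-type B-Raf, mutant K-Ras) plated overnight, then treated with compound for 4 h at 37 °C in complete McCoy's 5A with 10% FBS (0.25% final DMSO). Lysate pERK read by AlphaScreen SureFire, 2 h acceptor then 2 h donor beads at room temperature; IC50 fitted from concentration–response.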

## CNc1cc2nc(C)c(-c3cc(NC(=O)NCCC(C)(C)C)c(F)cc3F)cc2cn1 [Example 18, 1-(2,4-difluoro-5-(2-methyl-7-(methylamino)-1,6-naphthyridin-3-yl)phenyl)-3-(3,3-dimethylbutyl)urea]
[1]
  animal body weight loss: minimal animal body weight loss
[2]
  IC50: < 170 nM
C-Raf
  IC50: 20 nM
B-Raf (V600E); first B-Raf (V600E) column
  IC50: 35 nM
B-Raf (V600E); second B-Raf (V600E) column
  IC50: 37 nM
A-Raf
  IC50: 31 nM
A375 xenograft tumor
  tumor growth: tumor growth inhibition
[3]
  inhibition in vivo at 20 mg/kg: 93%
[4]
  IC50: 2 to 96 nM
